Measurements reported in PubChem BioAssay AID2060896 (Molecular Pharmacology Branch, DTP, NCI, 2025).
Where “and” joins values, the source holds several entries; their conditions need not be identical. Equal entries are not always repeated. Each block holds one compound with its values, some of them ahead of it.

System: 941728-121-R-J1-PDC complex spheroid viability
Test: Anticancer human tumor 941728-121-R-J1-PDC patient-derived lung adenocarcinoma cell line growth inhibition [RAS]
Details: for viability, T/C: stronger effect = lower value
How it was run: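 Multi-cell-type spheroids: tumor cells plus HUVEC endothelial cells and mesenchymal stem cells. RAS-pathway inhibitors were combined with targeted agents, each dosed in half-log steps down from clinical Cmax, or from 10 microM when Cmax was unknown.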

[1] = curve of first compound, second compound 0.0316 µM
[2] = curve of first compound, second compound 0.1 µM
[3] = curve of first compound, second compound 0.316 µM
[4] = curve of first compound, second compound 1 µM
[5] = curve of first compound, second compound 3.16 µM
[6] = curve of first compound, second compound 10 µM
[7] = second compound 0.0316 µM, first compound 0.0316 µM
[8] = second compound 0.0316 µM, first compound 0.1 µM
[9] = second compound 0.1 µM, first compound 0.0316 µM
[10] = second compound 0.1 µM, first compound 0.1 µM
[11] = second compound 0.316 µM, first compound 0.0316 µM
[12] = second compound 0.316 µM, first compound 0.1 µM
[13] = second compound 1 µM, first compound 0.0316 µM
[14] = second compound 1 µM, first compound 0.1 µM
[15] = second compound 3.16 µM, first compound 0.0316 µM
[16] = second compound 3.16 µM, first compound 0.1 µM
[17] = second compound 10 µM, first compound 0.0316 µM
[18] = second compound 10 µM, first compound 0.1 µM
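Further: spheroids exposed to compounds for 7 days before readout.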
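Wherever viability, T/C is given: 100% = DMSO vehicle control viability.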

IC50 [1]: 1040 nM
IC50 [2]: 972 nM
IC50 [3]: 422 nM
IC50 [4]: < 31.6 nM
IC50 [5]: < 31.6 nM
IC50 [6]: < 31.6 nM
Structure (SMILES): CC(C)NCC(C(=O)N1CCN(c2ncnc3c2C(C)CC3O)CC1)c1ccc(Cl)cc1 (stereo not drawn) + C#Cc1c(F)ccc2cc(O)cc(-c3ncc4c(N5CC6CCC(C5)N6)nc(OCC56CCCN5CC(F)C6)nc4c3F)c12
viability, T/C [7]: 102%
viability, T/C [8]: 79.8%
viability, T/C (second compound 0.0316 µM, first compound 0.316 µM): 63.7%
viability, T/C (second compound 0.0316 µM, first compound 1 µM): 51.8%
viability, T/C (second compound 0.0316 µM, first compound 3.16 µM): 38.7%
viability, T/C (second compound 0.0316 µM, first compound 10 µM): 34.8%
viability, T/C [9]: 79.9%
viability, T/C [10]: 70.9%
viability, T/C (second compound 0.1 µM, first compound 0.316 µM): 61.6%
viability, T/C (second compound 0.1 µM, first compound 1 µM): 50%
viability, T/C (second compound 0.1 µM, first compound 3.16 µM): 39.3%
viability, T/C (second compound 0.1 µM, first compound 10 µM): 33.4%
viability, T/C [11]: 56.6%
viability, T/C [12]: 59.2%
viability, T/C (second compound 0.316 µM, first compound 0.316 µM): 52%
viability, T/C (second compound 0.316 µM, first compound 1 µM): 42.1%
viability, T/C (second compound 0.316 µM, first compound 3.16 µM): 35%
viability, T/C (second compound 0.316 µM, first compound 10 µM): 26.9%
viability, T/C [13]: 39.3%
viability, T/C [14]: 39.4%
viability, T/C (second compound 1 µM, first compound 0.316 µM): 35%
viability, T/C (second compound 1 µM, first compound 1 µM): 30.9%
viability, T/C (second compound 1 µM, first compound 3.16 µM): 22.9%
viability, T/C (second compound 1 µM, first compound 10 µM): 21.1%
viability, T/C [15]: 32%
viability, T/C [16]: 30.4%
viability, T/C (second compound 3.16 µM, first compound 0.316 µM): 28.7%
viability, T/C (second compound 3.16 µM, first compound 1 µM): 24.9%
viability, T/C (second compound 3.16 µM, first compound 3.16 µM): 24.6%
viability, T/C (second compound 3.16 µM, first compound 10 µM): 17.3%
viability, T/C [17]: 25.4%
viability, T/C [18]: 23.5%
viability, T/C (second compound 10 µM, first compound 0.316 µM): 22.3%
viability, T/C (second compound 10 µM, first compound 1 µM): 21.6%
viability, T/C (second compound 10 µM, first compound 3.16 µM): 17.1%
viability, T/C (second compound 10 µM, first compound 10 µM): 11.2%

IC50 (curve of first compound, second compound 0.000949 µM): < 31.6 nM
IC50 (curve of first compound, second compound 0.003 µM): < 31.6 nM
IC50 (curve of first compound, second compound 0.00949 µM): < 31.6 nM
IC50 (curve of first compound, second compound 0.03 µM): < 31.6 nM
IC50 (curve of first compound, second compound 0.0949 µM): < 31.6 nM
IC50 (curve of first compound, second compound 0.3 µM): < 31.6 nM
Structure (SMILES): CC(=O)OC12COC1CC(O)C1(C)C(=O)C(O)C3=C(C)C(OC(=O)C(O)C(NC(=O)OC(C)(C)C)c4ccccc4)CC(O)(C(OC(=O)c4ccccc4)C21)C3(C)C (stereo not drawn) + CCn1c(-c2cc(N3CCN(C)CC3)cnc2C(C)OC)c2c3cc(ccc31)-c1csc(n1)CC(NC(=O)C1CC1C)C(=O)N1CCCC(N1)C(=O)OCC(C)(C)C2
viability, T/C (second compound 0.000949 µM, first compound 0.0316 µM): 21.7%
viability, T/C (second compound 0.000949 µM, first compound 0.1 µM): 21.4%
viability, T/C (second compound 0.000949 µM, first compound 0.316 µM): 16.5%
viability, T/C (second compound 0.000949 µM, first compound 1 µM): 19.6%
viability, T/C (second compound 0.000949 µM, first compound 3.16 µM): 21.3%
viability, T/C (second compound 0.000949 µM, first compound 10 µM): 16.5%
viability, T/C (second compound 0.003 µM, first compound 0.0316 µM): 15.3%
viability, T/C (second compound 0.003 µM, first compound 0.1 µM): 16.9%
viability, T/C (second compound 0.003 µM, first compound 0.316 µM): 12.5%
viability, T/C (second compound 0.003 µM, first compound 1 µM): 13.8%
viability, T/C (second compound 0.003 µM, first compound 3.16 µM): 13.4%
viability, T/C (second compound 0.003 µM, first compound 10 µM): 11.2%
viability, T/C (second compound 0.00949 µM, first compound 0.0316 µM): 13.5%
viability, T/C (second compound 0.00949 µM, first compound 0.1 µM): 9.99%
viability, T/C (second compound 0.00949 µM, first compound 0.316 µM): 11.2%
viability, T/C (second compound 0.00949 µM, first compound 1 µM): 9.23%
viability, T/C (second compound 0.00949 µM, first compound 3.16 µM): 10.8%
viability, T/C (second compound 0.00949 µM, first compound 10 µM): 10.2%
viability, T/C (second compound 0.03 µM, first compound 0.0316 µM): 10.2%
viability, T/C (second compound 0.03 µM, first compound 0.1 µM): 9.9%
viability, T/C (second compound 0.03 µM, first compound 0.316 µM): 9.46%
viability, T/C (second compound 0.03 µM, first compound 1 µM): 9.75%
viability, T/C (second compound 0.03 µM, first compound 3.16 µM): 7.17%
viability, T/C (second compound 0.03 µM, first compound 10 µM): 11.4%
viability, T/C (second compound 0.0949 µM, first compound 0.0316 µM): 10.4%
viability, T/C (second compound 0.0949 µM, first compound 0.1 µM): 11%
viability, T/C (second compound 0.0949 µM, first compound 0.316 µM): 9.54%
viability, T/C (second compound 0.0949 µM, first compound 1 µM): 8.5%
viability, T/C (second compound 0.0949 µM, first compound 3.16 µM): 8.8%
viability, T/C (second compound 0.0949 µM, first compound 10 µM): 9.11%
viability, T/C (second compound 0.3 µM, first compound 0.0316 µM): 9.41%
viability, T/C (second compound 0.3 µM, first compound 0.1 µM): 9.25%
viability, T/C (second compound 0.3 µM, first compound 0.316 µM): 8.94%
viability, T/C (second compound 0.3 µM, first compound 1 µM): 9.02%
viability, T/C (second compound 0.3 µM, first compound 3.16 µM): 7.68%
viability, T/C (second compound 0.3 µM, first compound 10 µM): 9.8%

IC50 (curve of compound): 8.88 µM [middle of 4 runs]
Structure (SMILES): C[C@@H](NC(=O)c1ncnc(N)c1Cl)c1ncc(C(=O)Nc2cc(C(F)(F)F)c(Cl)cn2)s1
viability, T/C (compound 0.0316 µM): 114% [middle of 4 runs]
viability, T/C (compound 0.1 µM): 112% and 129% and 115% (2×)
viability, T/C (compound 0.316 µM): 120% [middle of 4 runs]
viability, T/C (compound 1 µM): 112% [middle of 4 runs]
viability, T/C (compound 3.16 µM): 83.2% [middle of 4 runs]
viability, T/C (compound 10 µM): 45.7% [middle of 4 runs]

IC50 [1]: 3.97 nM
IC50 [2]: 2.76 nM
IC50 [3]: 1.26 nM
IC50 [4]: < 0.316 nM
IC50 [5]: < 0.316 nM
IC50 [6]: < 0.316 nM
Structure (SMILES): CC(C)n1nc(-c2ccc3oc(N)nc3c2)c2c(N)ncnc21 + C#Cc1c(F)ccc2cc(O)cc(-c3ncc4c(N5CC6CCC(C5)N6)nc(OCC56CCCN5CC(F)C6)nc4c3F)c12
viability, T/C (second compound 0.0316 µM, first compound 0.000316 µM): 78.9%
viability, T/C (second compound 0.0316 µM, first compound 0.001 µM): 70.5%
viability, T/C (second compound 0.0316 µM, first compound 0.00316 µM): 51%
viability, T/C (second compound 0.0316 µM, first compound 0.01 µM): 39.2%
viability, T/C [7]: 31.6%
viability, T/C [8]: 26.3%
viability, T/C (second compound 0.1 µM, first compound 0.000316 µM): 68.5%
viability, T/C (second compound 0.1 µM, first compound 0.001 µM): 68.6%
viability, T/C (second compound 0.1 µM, first compound 0.00316 µM): 46.3%
viability, T/C (second compound 0.1 µM, first compound 0.01 µM): 33.9%
viability, T/C [9]: 27.8%
viability, T/C [10]: 26.6%
viability, T/C (second compound 0.316 µM, first compound 0.000316 µM): 60.8%
viability, T/C (second compound 0.316 µM, first compound 0.001 µM): 51.7%
viability, T/C (second compound 0.316 µM, first compound 0.00316 µM): 42%
viability, T/C (second compound 0.316 µM, first compound 0.01 µM): 34.5%
viability, T/C [11]: 26.7%
viability, T/C [12]: 26.3%
viability, T/C (second compound 1 µM, first compound 0.000316 µM): 33.6%
viability, T/C (second compound 1 µM, first compound 0.001 µM): 35.9%
viability, T/C (second compound 1 µM, first compound 0.00316 µM): 31.3%
viability, T/C (second compound 1 µM, first compound 0.01 µM): 23.7%
viability, T/C [13]: 21.1%
viability, T/C [14]: 18.8%
viability, T/C (second compound 3.16 µM, first compound 0.000316 µM): 29.4%
viability, T/C (second compound 3.16 µM, first compound 0.001 µM): 30.4%
viability, T/C (second compound 3.16 µM, first compound 0.00316 µM): 25.9%
viability, T/C (second compound 3.16 µM, first compound 0.01 µM): 20.2%
viability, T/C [15]: 18.4%
viability, T/C [16]: 15.9%
viability, T/C (second compound 10 µM, first compound 0.000316 µM): 24.1%
viability, T/C (second compound 10 µM, first compound 0.001 µM): 22.3%
viability, T/C (second compound 10 µM, first compound 0.00316 µM): 20%
viability, T/C (second compound 10 µM, first compound 0.01 µM): 15.9%
viability, T/C [17]: 11.5%
viability, T/C [18]: 9.78%
